In BindingDB's records for doi:10.1021/jm00124a027 (Syntex Research, 1989):

Experiment: Inhibition of thromboxane A2 synthetase as reduced ADP-induced aggregation of human platelet rich plasma in the presence of pig aortal microsomes

Row | IC50 [nM] | Compound
1 | 9100 | C/C(=C\c1ccc(Cn2ccnc2)[nH]1)C(=O)O
2 | 50 | C/C(=C/c1ccc(Cc2cccnc2)n1C)C(=O)O
3 | 3800 | Cn1c(/C=C/C(=O)O)ccc1Cn1ccnc1
4 | 1000 | C/C(=C/c1ccc(Cn2ccnc2)n1C)C(=O)O
5 | 1600 | C/C(=C\c1cc(Cn2ccnc2)n(C)c1)C(=O)O

More lines, now with the values behind:

Row | Compound | IC50 [nM]
6 | C/C(=C/c1ccc(Cc2cccnc2)n1-c1ccccc1)C(=O)O | 24000
7 | C/C(=C/c1cc(Cc2cccnc2)n(C(C)(C)C)c1)C(=O)O | 44
8 | C/C(=C/c1ccc(Cc2cccnc2)n1CC(C)(C)C)C(=O)O | 78000
9 | Cn1cc(/C=C/C(=O)O)cc1Cn1ccnc1 | 4600
10 | COC(=O)[C@@H]1CC1c1ccc(Cn2ccnc2)n1C (some centres not stated) | 9100
11 | CCn1c(/C=C(/C)C(=O)O)ccc1Cc1cccnc1 | 42
12 | C/C(=C/c1ccc(Cc2cccnc2)n1C(C)C)C(=O)O | 2100
